In patent publication US8188150B2, “Use of beta-aminoalcohols in the treatment of inflammatory disorders and pain” (Biocopea Limited, priority 2006, dated 2012):

Columns and labels:
TNFα = experiment: LPS Mouse Assay, serum TNFα by ELISA; format: in vivo, Balb C ByJ mice; settings: i.p. or oral, 30 minutes before 1 mg/kg LPS i.p.; serum 2 hours after LPS
Description: (§1) 7 week-old Balb C ByJ mice (24-28 g) were administered, either by i.p. (5 ml/kg) or oral (10 ml/kg) administration, with vehicle or test article. 30 minutes later these animals were challenged with an intraperitoneal injection of 1 mg/kg LPS. 2 hours after LPS challenge blood samples were collected under light isoflurane anaesthesia into normal tubes by retro-orbital puncture. Samples were allowed to clot at room temperature and then spun at 6000 g for 3 min at 4° C. Serum was stored at −20° C. until use. Serum TNFα and IL-10 levels were analysed in duplicate by ELISA technique.

IL-10 = experiment: LPS Mouse Assay, serum IL-10 by ELISA; format: in vivo, Balb C ByJ mice; settings: i.p. or oral, 30 minutes before 1 mg/kg LPS i.p.; serum 2 hours after LPS
Description: as §1

[1] = system: inflammation induced by carrageenan paw injection; experiment: Carrageenan Paw Assay; format: in vivo, male Wistar rats; settings: oral gavage, half an hour before 2% carrageenan; paw measured at 1-5 hours
Description: Fasted (18 hour) male Wistar rats (105-130 g) were weighed and a basal mercury plethysmometer reading was taken of the right hind paw by submerging the paw in the mercury up to the tibiotarsal joint. Subsequently, vehicles, reference items and test articles were administered by oral gavage (10 ml/kg). Half an hour after treatment 0.1 ml of 2% carrageenan in 0.9% saline was injected into the subplanatar area of the right hind paw. The right paw was measured again with the plethysmometer at 1, 2, 3, 4 and 5 hours after carrageenan administration.

Compound: CC(C)(CO)NCC(=O)c1cc(Cl)c(N)c(Cl)c1 [Compound (3), 1-(4-Amino-3,5-dichlorophenyl)-2-(1-hydroxy-2-methylpropan-2-ylamino)ethanone]
- effect on serum TNFα (TNFα): strong inhibitory effects
- effect on serum IL-10 (IL-10): potentiating effects
- effect on inflammation induced by carrageenan paw injection [1]: dose-dependant inhibitory effect
